Experimental data from patent publication US4400517A, “Phosphoric esters derived from 1,2,4-triazole having an insecticidal, nematocidal and acaricidal action, and their preparation” (priority 1976, dated 1983).
Where two headings read alike, the source gives them in different places.

Key:
Type in all cases: in vivo
[1] = system: Pieris brassicae; experiment: Biological activity on Pieris brassicae (Lepidoptera); details: 48 h
Experimental: (2) Biological activity on Pieris brassicae (Lepidotera)
Cut-off cauliflower leaves were sprinkled with an aqueous dispersion of the products under examination (see TABLE 5).
After drying, the leaves were infested with 5-day old larvae. The percentage of mortality of the larvae (untreated leaves=0) was determined after 48 hours from treatment.

[2] = system: Leptinotarsa decemlineata; experiment: Biological activity on Leptinotarsa decemlineata (Coleoptera); details: 48 h, Table 5, read-out: Activity (mortality class), Leptinotarsa D.; for mortality at 0.1 %: 1%o; for mortality at 0.005 %: 0.05%o
Experimental: (3) Biological activity on Leptinotarsa decemlineata (Coleoptera)
Small potato plants grown in pots were infested with 4-day old larvae, and were then sprinkled with an aqueous dispersion of the products under examination (see Tables 4 and 5).
The mortality percentage (untreated small plants=0) was determined after 48 hours from treatment.

[3] = system: Culex pipiens; experiment: Biological activity on Culex pipiens larvae (Diptera); details: 24 h, Table 5, read-out: Activity (mortality class), Culex P. (larvae)
Experimental: (4) Biological activity on Culex pipiens (Diptera)
Into glasses containing an aqueous dispersion of the products under examination (see Tables 4 and 5) there were introduced mosquito larvae of third and fourth age.
The mortality percentage of the larvae (glasses containing pure water=0) was determined after 24 hours from treatment.

[4] = system: Tetranychus urticae; experiment: Biological activity on adults of Tetranychus urticae (Acari); details: 24 h, Table 5, read-out: Activity (mortality class), Tetranychus U. (adults); for mortality at 0.1 %: 1%o; for mortality at 0.001 %: 0.01%o
Experimental: (5) Biological activity on adults of Tetranychus urticae (Acari)
Discs of bean leaves were infested with adult acari and then sprinkled with an aqueous dispersion of the products under examination (see Tables 4 and 5).
The mortality percentage was determined after 24 hours from treatment (untreated leaf discs, mortality=0).

[5] = system: Spodoptera littoralis; experiment: Biological activity on Spodoptera littoralis (Lepidoptera); details: 48 h
Experimental: (7) Biological activity on Spodoptera littoralis (Lepidoptera)
Cut tobacco leaves were sprinkled with an aqueous dispersion of the products under examination (see Tables 4 and 5).
After drying, the leaves were infested with 5-day old larvae.
The percentage of mortality of the larvae was determined after 48 hours from treatment (untreated leaves, mortality=0).

[6] = system: Blatta orientalis; experiment: Biological activity on Blatta orientalis (Ortoptera); details: Blatta orientalis, 48 h, read-out: Activity (mortality class), Blatta O.
Experimental: (10) Biological activity on Blatta orientalis (Ortoptera)
The bottom and walls of glass crystallizers were treated uniformly with an acetonic solution of the products under examination (see Tables 4 and 5). After evaporation of the solvent, into each crystallizer were introduced ten 80-100 days old neanides. The crystallizers were then closed with a metal net cover. After 24 hours from the start of the treatment, the insects were transferred to similar untreated crystallizers, and there were appropriately nourished in conventional manner.
The percentage of mortality (untreated insects=0) was determined after 48 hours from the start of the treatment.

[7] = 1%o, Table 5, read-out: Activity (mortality class), Pieris B.
[8] = 1%o, Table 5, read-out: Activity (mortality class), Spodoptera L.
[9] = 0.01%o, Table 5, read-out: Activity (mortality class), Pieris B.
[10] = 0.05%o, Table 5, read-out: Activity (mortality class), Spodoptera L.
[11] = read-out: Activity (mortality class), Pieris B.
[12] = read-out: Activity (mortality class), Spodoptera L.

SMILES	mortality at 0.1 % [1, 7]	mortality at 0.1 % [2]	mortality at 2 ppm [3]	mortality at 0.1 % [4]	mortality at 0.1 % [5, 8]	mortality at 1 g/m2 ([6]; 1 g/m^2, Table 5)	mortality at 0.001 % [1, 9]	mortality at 0.005 % [2]	mortality at 0.02 ppm [3]	mortality at 0.001 % [4]	mortality at 0.005 % [5, 10]	mortality at 0.01 g/m2 ([6]; 0,01 g/m^2, Table 5)	mortality at 0.001 % [1, 11]	mortality at 0.1 % [1, 11]	mortality at 0.005 % [5, 12]	mortality at 0.1 % [5, 12]	mortality at 0.01 g/m2 [6]	mortality at 1 g/m2 [6]
C=Cc1nc(OP(=S)(OCC)OCC)n(-c2ccccc2)n1 [M 8261]	100%	100%	100%	100%	100%	100%	–	–	–	–	–	–	–	–	–	–	–	–
CCCCn1nc(C=C(Cl)Cl)nc1OP(=S)(OCC)OCC [M 8474]	–	–	–	–	–	–	100%	100%	100%	0 to 9%	100%	0 to 9%	–	–	–	–	–	–
CCCOP(=S)(OCCC)Oc1nc(C=C(Cl)Cl)nn1C(C)C [M 8500]	100%	100%	70 to 99%	10 to 69%	10 to 69%	0 to 9%	10 to 69%	–	–	–	–	–	–	–	–	–	–	–
CCOP(=S)(OCC)Oc1nc(C(C)OC(=O)C=C(Cl)Cl)nn1-c1ccccc1 (stereo not drawn) [M 8086]	100%	100%	100%	100%	100%	–	–	–	–	–	–	–	–	–	–	–	–	–
C#CCn1nc(C=C(Cl)Cl)nc1OP(=S)(OCC)OCC [M 8828]	100%	100%	100%	100%	–	100%	–	–	10 to 69%	70 to 99%	–	–	–	–	–	–	–	–
CCOP(=S)(OCC)Oc1nc(C(C)N(C)C)nn1-c1ccccc1 (stereo not drawn) [M 8171]	–	–	100%	70 to 99%	–	–	–	–	–	–	–	–	–	–	–	–	–	–
CCOP(=S)(OCC)Oc1nc(C=C(Br)Br)nn1C [M 8308]	100%	100%	100%	100%	100%	100%	–	–	100%	–	–	–	–	–	–	–	–	–
CCOP(=S)(OCC)Oc1nc(C=C(Cl)SC)nn1C [M 8805]	–	100%	100%	100%	–	–	–	100%	100%	100%	–	–	10 to 69%	100%	100%	100%	10 to 69%	100%
CCCC=C(CC)c1nc(OP(=S)(OCC)OCC)n(C)n1 [M 8591]	100%	100%	100%	100%	100%	100%	–	–	–	100%	–	–	–	–	–	–	–	–
CCOP(=S)(OCC)Oc1nc(C=C(SC)SC)nn1C [M 8825]	100%	100%	100%	100%	100%	100%	0 to 9%	100%	70 to 99%	100%	10 to 69%	10 to 69%	–	–	–	–	–	–
CCOP(=S)(OCC)Oc1nc(C=C(Cl)Cl)nn1CC(C)C [M 8498]	–	–	–	–	–	–	100%	10 to 69%	70 to 99%	10 to 69%	100%	10 to 69%	–	–	–	–	–	–
CCOP(=S)(OCC)Oc1nc(C(Br)=C(Br)Br)nn1C [M 8089, O,O-diethyl-O-(1-methyl-3-tribromovinyl-5-triazolyl)-thiophosphate]	100%	100%	100%	100%	100%	100%	–	–	–	–	–	–	–	–	–	–	–	–
CCOP(=S)(OCC)Oc1nc(C(C)OC(C)=O)nn1-c1ccccc1 (stereo not drawn) [M 8084]	100%	100%	100%	100%	100%	–	–	–	–	10 to 69%	–	–	–	–	–	–	–	–
CCOP(=S)(OCC)Oc1nc(C(C)O)nn1-c1ccccc1 (stereo not drawn) [M 7853]	100%	100%	100%	100%	100%	10 to 69%	–	–	–	–	–	–	–	–	–	–	–	–
CCOP(=S)(OCC)Oc1nc(C=C(Cl)Cl)nn1C(C)C [M 8450]	–	–	–	–	–	–	100%	10 to 69%	100%	100%	100%	70 to 99%	–	–	–	–	–	–
CCOP(=S)(OCC)Oc1nc(C=C(Cl)Cl)nn1Cc1ccccc1 [M 8827]	–	100%	100%	100%	–	–	–	–	10 to 69%	10 to 69%	–	–	–	–	–	–	–	–
CCOP(=S)(OCC)Oc1nc(C=C(Cl)OC)nn1C [M 8592]	100%	100%	100%	100%	100%	100%	100%	100%	10 to 69%	100%	100%	100%	–	–	–	–	–	–
CCOP(=S)(Oc1nc(C=C(Cl)Cl)nn1C)N(C)C (stereo not drawn) [M 9643]	–	–	–	100%	100%	–	–	–	–	–	–	–	–	–	–	–	–	–
CCOP(=S)(OCC)Oc1nc(C2=C(Cl)CCCC2)nn1C [M 5338/89]	100%	100%	100%	100%	100%	100%	10 to 69%	10 to 69%	–	70 to 99%	–	–	–	–	–	–	–	–
CCOC(=O)c1nc(OP(=S)(OCC)OCC)n(-c2ccccc2)n1 [M 8257]	70 to 99%	10 to 69%	70 to 99%	70 to 99%	–	10 to 69%	–	–	–	–	–	–	–	–	–	–	–	–
COP(=S)(OC)Oc1nc(C=C(Cl)Cl)nn1C(C)C [M 8499]	–	–	–	–	–	–	10 to 69%	0 to 9%	10 to 69%	10 to 69%	100%	10 to 69%	–	–	–	–	–	–
CCOP(=S)(OCC)Oc1nc(C=C(Cl)Cl)nn1CC [M 5349/40]	–	–	–	–	–	–	100%	100%	100%	100%	100%	70 to 99%	–	–	–	–	–	–
CC=Cc1nc(OP(=S)(OCC)OCC)n(CCCC)n1 [M 8497]	–	–	–	–	–	–	70 to 99%	100%	0 to 9%	10 to 69%	0 to 9%	10 to 69%	–	–	–	–	–	–
CCCCn1nc(C=C(Cl)Cl)nc1OP(=S)(OC)OC [M 8477]	100%	100%	100%	100%	100%	100%	–	–	–	–	10 to 69%	–	–	–	–	–	–	–
CCOP(=S)(OCC)Oc1nc(C(C)=O)nn1-c1ccccc1 [M 7650]	100%	0 to 9%	100%	100%	70 to 99%	–	–	–	–	–	–	–	–	–	–	–	–	–
CCOP(=S)(OCC)Oc1nc(C(=O)c2ccccc2)nn1-c1ccccc1 [M 7480]	–	–	10 to 69%	100%	–	–	–	–	–	–	–	–	–	–	–	–	–	–
CCOP(=S)(Oc1nc(C=C(Cl)Cl)nn1C)c1ccccc1 (stereo not drawn) [M 9579]	–	–	100%	100%	–	–	–	–	–	–	–	–	–	–	–	–	–	–
CCOP(=S)(OCC)Oc1nc(C=Cc2ccccc2)nn1C [M 8332]	100%	70 to 99%	100%	100%	100%	100%	10 to 69%	–	–	–	–	100%	–	–	–	–	–	–
CCOP(=S)(OC)Oc1nc(C=C(Cl)Cl)nn1C (stereo not drawn) [M 9750]	–	100%	100%	100%	100%	100%	–	10 to 69%	100%	100%	100%	100%	–	–	–	–	–	–
